Earlier results on three molecules are cited in patent EP0486445A2, “Polyfunctional derivatives of cyclodextrin” (Chiellini, Emo, priority 1990, dated 1992).

The conditions of data set [1]: compared to the starting cyclodextrin; degree of substitution lower than 7.
The conditions of data set [2]: compared to the starting cyclodextrin.

Turning to “2-hydroxypropyl- β-cyclodextrin [HP- βCD]”, the toxicity result in data set [1] is reported as “lower toxicity”. For the same molecule, in data set [2], the water solubility result is on record as “much larger water solubility”.

On to `COC[C@H]1O[C@@H]2O[C@H]3[C@H](O)[C@@H](OC)[C@@H](O[C@H]4[C@H](O)[C@@H](OC)[C@@H](O[C@H]5[C@H](O)[C@@H](OC)[C@@H](O[C@H]6[C@H](O)[C@@H](OC)[C@@H](O[C@H]7[C@H](O)[C@@H](OC)[C@@H](O[C@H]8[C@H](O)[C@@H](OC)[C@@H](O[C@H]1[C@H](O)[C@H]2OC)O[C@@H]8COC)O[C@@H]7COC)O[C@@H]6COC)O[C@@H]5COC)O[C@@H]4COC)O[C@@H]3COC` [DM-β CD, eptakis-(2,6-O-dimethyl)-β-cyclodextrin], for which, in data set [2], the water solubility result was “much more water soluble”.

As to hydroxyethyl-β-cyclodextrin [HE- βCD], the toxicity entry in data set [1] is listed as “lower toxicity”. The water solubility result in data set [2] was “much larger water solubility”.
